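Dose response: 5 concentrations. Exposure: 48 h. Format: 96-well plates. Endpoint: linear interpolation; highest concentration if not reached. TGI marks complete inhibition of growth.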
Columns and labels:
Test in all cases: NCI-60 cell line screen, 48 h
[1] = system: HOP-18 NSCLC
[2] = system: IGROV1 ovarian
[3] = system: SK-MEL-28 melanoma
[4] = system: KM12 colon
[5] = system: HCT-116 colon
[6] = system: U251 CNS
[7] = system: DLD-1 colon
[8] = system: SN12C renal
[9] = system: NCI-H460 lung
[10] = system: DMS 114 small cell lung
[11] = system: 786-0 renal
[12] = system: LOX IMVI melanoma
[13] = system: OVCAR-4 ovarian
[14] = system: HOP-62 NSCLC
[15] = system: SF-268 CNS
[16] = system: LXFL 529 NSCLC
[17] = system: TK-10 renal
[18] = system: ACHN renal
[19] = system: HT29 colon
[20] = system: RXF 393 renal
[21] = system: RPMI-8226 leukemia
[22] = system: OVCAR-3 ovarian
[23] = system: HL-60(TB) leukemia
[24] = system: HCT-15 colon
[25] = system: A549 NSCLC
[26] = system: NCI-H23 lung
[27] = system: UACC-257 melanoma
[28] = system: UACC-62 melanoma
[29] = system: OVCAR-8 ovarian
[30] = system: SNB-78 CNS
[31] = system: MOLT-4 leukemia
[32] = system: M14 melanoma
[33] = system: SNB-75 CNS
[34] = system: K-562 leukemia
[35] = system: CAKI-1 renal
[36] = system: MALME-3M melanoma
[37] = system: DMS 273 small cell lung
[38] = system: NCI-H226 lung
[39] = system: OVCAR-5 ovarian
[40] = system: COLO 205 colon
[41] = system: CCRF-CEM leukemia
[42] = system: SK-OV-3 ovarian
[43] = system: SF-539 CNS
[44] = system: SK-MEL-2 melanoma
[45] = system: SNB-19 CNS
[46] = system: NCI-H522 lung
[47] = system: KM20L2 colon
[48] = system: A498 renal
[49] = system: SF-295 CNS
[50] = system: SK-MEL-5 melanoma
[51] = system: HOP-92 NSCLC
[52] = system: UO-31 renal
[53] = system: SR leukemia
[54] = system: EKVX NSCLC
[55] = system: M19-MEL melanoma
[56] = system: SW-620 colon
[57] = system: HCC-2998 colon
[58] = system: HS 578T breast
[59] = system: BT-549 breast
[60] = system: MCF7 breast
[61] = system: PC-3 prostate
[62] = system: T-47D breast
[63] = system: DU-145 prostate
[64] = system: MDA-MB-435
[65] = system: MDA-N
[66] = system: NCI/ADR-RES ovarian
[67] = system: MDA-MB-231 breast

OC12c3ccccc3C1(N1CCOCC1)CCCCC21OCCCO1 (centres undefined)
TGI [1]: > 100 µM
TGI [2]: > 100 µM
TGI [3]: > 100 µM
TGI [4]: > 100 µM
TGI [5]: > 100 µM
TGI [6]: > 100 µM
TGI [7]: > 100 µM
TGI [8]: > 100 µM
TGI [9]: > 100 µM
TGI [10]: > 100 µM
TGI [11]: > 100 µM
TGI [12]: > 100 µM
TGI [13]: > 100 µM
TGI [14]: > 100 µM
TGI [15]: > 100 µM
TGI [16]: > 100 µM
TGI [17]: > 100 µM
TGI [18]: > 100 µM
TGI [19]: > 100 µM
TGI [20]: > 100 µM
TGI [21]: > 100 µM
TGI [22]: > 100 µM
TGI [23]: > 100 µM
TGI [24]: > 100 µM
TGI [25]: > 100 µM
TGI [26]: > 100 µM
TGI [27]: > 100 µM
TGI [28]: > 100 µM
TGI [29]: > 100 µM
TGI [30]: > 100 µM
TGI [31]: > 100 µM
TGI [32]: > 100 µM
TGI [33]: > 100 µM
TGI [34]: > 100 µM
TGI [35]: > 100 µM
TGI [36]: > 100 µM
TGI [37]: > 100 µM
TGI [38]: > 100 µM
TGI [39]: > 100 µM
TGI [40]: > 100 µM
TGI [41]: > 100 µM
TGI [42]: > 100 µM
TGI [43]: > 100 µM
TGI [44]: > 100 µM
TGI [45]: > 100 µM
TGI [46]: > 100 µM
TGI [47]: > 100 µM
TGI [48]: > 100 µM
TGI [49]: > 100 µM
TGI [50]: > 100 µM

C=C(C)C1CC=C(C)[C@](O)(C2(O)C[C@H](C(=C)C)CC=C2C)C1 (some centres undefined)
TGI [2]: > 100 µM
TGI [51]: > 100 µM
TGI [52]: > 100 µM
TGI [3]: > 100 µM
TGI [4]: > 100 µM
TGI [5]: > 100 µM
TGI [6]: > 100 µM
TGI [9]: > 100 µM
TGI [10]: > 100 µM
TGI [14]: > 100 µM
TGI [17]: > 100 µM
TGI [18]: > 100 µM
TGI [19]: > 100 µM
TGI [53]: > 100 µM
TGI [20]: > 100 µM
TGI [54]: > 100 µM
TGI [23]: > 100 µM
TGI [25]: > 100 µM
TGI [26]: > 100 µM
TGI [27]: > 100 µM
TGI [28]: > 100 µM
TGI [29]: > 100 µM
TGI [30]: > 100 µM
TGI [31]: > 100 µM
TGI [32]: > 100 µM
TGI [37]: > 100 µM
TGI [55]: > 100 µM
TGI [39]: > 100 µM
TGI [41]: > 100 µM
TGI [42]: > 100 µM
TGI [45]: > 100 µM
TGI [46]: > 100 µM
TGI [47]: > 100 µM
TGI [48]: > 100 µM
TGI [49]: > 100 µM

COC(=O)CCCN(C)c1n[nH]c(N)n1
TGI [2]: > 100 µM
TGI [52]: > 100 µM
TGI [3]: > 100 µM
TGI [4]: > 100 µM
TGI [5]: > 100 µM
TGI [6]: > 100 µM
TGI [7]: > 100 µM
TGI [8]: > 100 µM
TGI [9]: > 100 µM
TGI [10]: > 100 µM
TGI [11]: > 100 µM
TGI [12]: > 100 µM
TGI [13]: > 100 µM
TGI [14]: > 100 µM
TGI [15]: > 100 µM
TGI [16]: > 100 µM
TGI [17]: > 100 µM
TGI [18]: > 100 µM
TGI [19]: > 100 µM
TGI [53]: > 100 µM
TGI [20]: > 100 µM
TGI [54]: > 100 µM
TGI [21]: > 100 µM
TGI [22]: > 100 µM
TGI [23]: > 100 µM
TGI [24]: > 100 µM
TGI [25]: > 100 µM
TGI [26]: > 100 µM
TGI [27]: > 100 µM
TGI [56]: > 100 µM
TGI [28]: > 100 µM
TGI [29]: > 100 µM
TGI [30]: > 100 µM
TGI [31]: > 100 µM
TGI [32]: > 100 µM
TGI [33]: > 100 µM
TGI [34]: > 100 µM
TGI [37]: > 100 µM
TGI [55]: > 100 µM
TGI [38]: > 100 µM
TGI [57]: > 100 µM
TGI [39]: > 100 µM
TGI [40]: > 100 µM
TGI [41]: > 100 µM
TGI [42]: > 100 µM
TGI [43]: > 100 µM
TGI [45]: > 100 µM
TGI [47]: > 100 µM
TGI [49]: > 100 µM
TGI [50]: > 100 µM

CSc1c(C(=O)Nc2ccc(Cl)cc2)c(N)nn1-c1ccccc1
TGI [58]: > 100 µM
TGI [2]: > 100 µM
TGI [51]: > 100 µM
TGI [59]: > 100 µM
TGI [52]: > 100 µM
TGI [3]: > 100 µM
TGI [4]: > 100 µM
TGI [5]: > 100 µM
TGI [60]: > 100 µM
TGI [6]: > 100 µM
TGI [8]: > 100 µM
TGI [9]: > 100 µM
TGI [61]: > 100 µM
TGI [62]: > 100 µM
TGI [11]: > 43.2 µM
TGI [12]: > 100 µM
TGI [13]: > 23.8 µM
TGI [14]: > 100 µM
TGI [15]: > 100 µM
TGI [17]: > 100 µM
TGI [18]: > 100 µM
TGI [19]: > 100 µM
TGI [53]: > 100 µM
TGI [20]: > 87.4 µM
TGI [54]: > 100 µM
TGI [21]: > 100 µM
TGI [22]: > 100 µM
TGI [23]: > 100 µM
TGI [24]: > 100 µM
TGI [25]: > 100 µM
TGI [26]: > 100 µM
TGI [27]: > 100 µM
TGI [56]: > 100 µM
TGI [28]: > 100 µM
TGI [29]: > 100 µM
TGI [31]: > 100 µM
TGI [32]: > 100 µM
TGI [33]: > 86.3 µM
TGI [34]: > 100 µM
TGI [35]: > 100 µM
TGI [36]: > 100 µM
TGI [38]: > 100 µM
TGI [57]: > 100 µM
TGI [39]: > 100 µM
TGI [40]: > 100 µM
TGI [41]: > 100 µM
TGI [63]: > 100 µM
TGI [42]: > 100 µM
TGI [43]: > 100 µM
TGI [64]: > 100 µM
TGI [44]: > 100 µM
TGI [45]: > 100 µM
TGI [46]: > 100 µM
TGI [65]: > 100 µM
TGI [66]: > 100 µM
TGI [48]: > 100 µM
TGI [49]: > 100 µM
TGI [50]: > 100 µM
TGI [67]: > 100 µM

Source: PubChem BioAssay (NCI)
